Source: PubChem BioAssay (NCI)
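Method: 48-hour compound exposure of cells in 96-well plates, five concentrations, linear interpolation of endpoints. TGI is the concentration that stops growth completely.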

How the values were obtained:
Assay in all cases: NCI anticancer screen, dose series, 48 h
SF-539 CNS = test system: SF-539 CNS
IGROV1 ovarian = test system: IGROV1 ovarian
OVCAR-3 ovarian = test system: OVCAR-3 ovarian
CCRF-CEM leukemia = test system: CCRF-CEM leukemia
MALME-3M melanoma = test system: MALME-3M melanoma
HS 578T breast = test system: HS 578T breast
NCI-H23 lung = test system: NCI-H23 lung
HCC-2998 colon = test system: HCC-2998 colon
MDA-N = test system: MDA-N
NCI-H226 lung = test system: NCI-H226 lung
U251 CNS = test system: U251 CNS
K-562 leukemia = test system: K-562 leukemia
MOLT-4 leukemia = test system: MOLT-4 leukemia
NCI-H522 lung = test system: NCI-H522 lung
RXF 393 renal = test system: RXF 393 renal
UO-31 renal = test system: UO-31 renal
HCT-116 colon = test system: HCT-116 colon
PC-3 prostate = test system: PC-3 prostate
OVCAR-4 ovarian = test system: OVCAR-4 ovarian

Measured: TGI

CC1(C)CC(=O)c2c(nc(SSc3nc4c(c(-c5ccc(Br)cc5)c3C#N)C(=O)CC(C)(C)C4)c(C#N)c2-c2ccc(Br)cc2)C1
> 10 µM: all assays above

Nc1nc(NCC2(CO)CCC2)cc(=O)[nH]1
not listed: SF-539 CNS
> 100 µM: all other assays above

Cn1c(=O)cc(NCCc2ccccc2)[nH]c1=O
20.5 µM: MDA-N
36.6 µM: OVCAR-3 ovarian
50.7 µM: HS 578T breast
not listed: NCI-H522 lung
> 100 µM: all other assays above

C[N+](C)(C)CC(=O)N/N=C(/CC1OC(=O)c2ccccc21)c1ccccc1O (stereo not drawn)
49.3 µM: CCRF-CEM leukemia
86.4 µM: RXF 393 renal
72.3 µM: U251 CNS
57.4 µM: NCI-H226 lung
56.1 µM: UO-31 renal
62.3 µM: SF-539 CNS
50.9 µM: HCC-2998 colon
85.4 µM: NCI-H23 lung
42.4 µM: MOLT-4 leukemia
not listed: K-562 leukemia
> 100 µM: all other assays above

CCCCCCCCCCCCCCCC(=O)OC(COC(C)=O)CO[P+](=O)O (stereo not drawn)
42.7 µM: HCC-2998 colon
45.3 µM: U251 CNS
59.6 µM: IGROV1 ovarian
80.7 µM: MOLT-4 leukemia
36.6 µM: HS 578T breast
36.2 µM: NCI-H522 lung
97.1 µM: UO-31 renal
53.3 µM: SF-539 CNS
not listed: NCI-H23 lung | NCI-H226 lung | HCT-116 colon
> 100 µM: all other assays above

Cc1cc(=O)oc2c3c(ccc12)OC(c1ccc(Br)cc1)CC3=O (stereo not drawn)
9.11 µM: CCRF-CEM leukemia
18.3 µM: U251 CNS
18 µM: NCI-H522 lung
47.9 µM: PC-3 prostate
23.8 µM: HCT-116 colon
21.9 µM: UO-31 renal
71.3 µM: MALME-3M melanoma
> 100 µM: MDA-N | OVCAR-4 ovarian
19 µM: K-562 leukemia
27.5 µM: NCI-H23 lung
59.2 µM: HCC-2998 colon
32.5 µM: IGROV1 ovarian
27.1 µM: SF-539 CNS
24.3 µM: OVCAR-3 ovarian
4.91 µM: MOLT-4 leukemia
38.2 µM: HS 578T breast | NCI-H226 lung

COc1cc([C@@H]2c3cc4c(cc3[C@@H](c3c(O)cc(O)c5c3O[C@H](c3ccc(O)c(O)c3)[C@H](OC(=O)c3cc(O)c(O)c(O)c3)C5)[C@H]3COC(=O)[C@H]23)OCO4)cc(OC)c1OC
> 77.8 µM: PC-3 prostate
71.7 µM: HCC-2998 colon
7.53 µM: NCI-H226 lung
> 21.9 µM: OVCAR-3 ovarian
16.2 µM: CCRF-CEM leukemia
not listed: MALME-3M melanoma | UO-31 renal
> 100 µM: all other assays above

Cc1ccc(CC(Cc2ccc(C)cc2C(=O)O)C(=O)O)cc1 (stereo not drawn)
not listed: K-562 leukemia
> 100 µM: all other assays above

CC(=O)Oc1cc(C)c(OC(C)=O)c2c1[C@H]1CC[C@]3(C)[C@@H](OC(C)=O)CC[C@H]3[C@@H]1CC2
26.9 µM: HCC-2998 colon | PC-3 prostate
57 µM: HS 578T breast
32.9 µM: IGROV1 ovarian
33.9 µM: RXF 393 renal
30.2 µM: HCT-116 colon
35.4 µM: SF-539 CNS
36 µM: MALME-3M melanoma
28.7 µM: UO-31 renal
29.4 µM: U251 CNS
32.1 µM: OVCAR-3 ovarian
43.5 µM: CCRF-CEM leukemia
34.8 µM: NCI-H23 lung
32.6 µM: NCI-H522 lung
33.7 µM: MOLT-4 leukemia
28.2 µM: MDA-N
86.1 µM: K-562 leukemia

COc1ccc(N=Nc2ccc3oc(=O)c(C(=O)Nc4ccc(Cl)cc4)cc3c2)cc1
not listed: CCRF-CEM leukemia | K-562 leukemia | HCT-116 colon
> 10 µM: all other assays above

CCOC(=O)C1=COC(C)(c2ccccc2)CC1=O (stereo not drawn)
98 µM: MOLT-4 leukemia
not listed: IGROV1 ovarian | CCRF-CEM leukemia | MALME-3M melanoma | NCI-H226 lung
> 100 µM: all other assays above

NC(=S)N/N=c1\cc(C(=O)Nc2ccc([N+](=O)[O-])cc2[N+](=O)[O-])oc2ccccc12
not listed: MALME-3M melanoma | K-562 leukemia
> 100 µM: all other assays above

COc1ccc2c(c1)CCC1=C/C(=N\NC(N)=O)CCC12C (stereo not drawn)
not listed: NCI-H226 lung | RXF 393 renal | UO-31 renal
> 10 µM: all other assays above
